Reference: PubChem BioAssay AID1919013 (Molecular Pharmacology Branch, DTP, NCI, 2023)

Tested on: LG0703-F498-PDC complex spheroid growth
Assay: Anticancer human tumor LG0703-F498-PDC patient-derived lung adenocarcinoma cell line growth inhibition [AhR]
Conditions: for IC50: curve of first compound; for viability, T/C: stronger effect = lower value
Source text: Multicellular complex tumor spheroid response to aryl hydrocarbon receptor antagonists in combination with a variety of drugs and investigational agents in selected tumor cell lines
The current study was undertaken to assess response to aryl hydrocarbon receptor antagonists in combination with standard-of-care drugs and investigational agents in solid tumor complex spheroid models. Complex spheroids include a stromal component modeled by human endothelial cells (HUVEC) and fibroblasts modeled by human mesenchymal stem cells (MSCs). The concentration ranges selected for each drug and investigational agent were based upon clinically achievable concentrations if the clinical Cmax of the agent was known.
Compounds. The drugs and investigational agents: BAY 2416964 (NSC825713), GNF351 (NSC835774), CH-223191 (NSC835775), CPI-455 (NSC825282), aza-TdCyd (NSC777586), decitabine (NSC127716), belinostat (NSC758774), entinostat (NSC756642), pevonedistat (NSC761192), tazemetostat (NSC777109), talazoparib (NSC765396), olaparib (NSC753686), selinexor (NSC780203), nedisertib (M3814, NSC802822), bortezomib (NSC756655), venetoclax (NSC766270), doxorubicin (NSC123127), elimusertib (BAY189344, NSC800525), ceralasertib (AZD6738, NSC777638), TAK-243 (NSC785004), alisertib (NSC759677), etoposide (NSC141540), topotecan (NSC609699), eribulin (NSC707389), gemcitabine (NSC613327), carboplatin (NSC241240), cisplatin (NSC119875), and SN-38 (NSC673596) were obtained from the National Cancer Institute (NCI) Developmental Therapeutics Program Chemical Repository (32). The FDA-approved anticancer drug set is available from the Developmental Therapeutics Program at https://dtp.cancer.gov/organization/dscb/obtaining/available plates.htm. […] The stock solutions were prepared in dimethyl sulfoxide (DMSO, Sigma-Aldrich, St. Louis, MO, cat. D2650), except for the platinum compounds which were prepared in saline (Quality Biological, Gaithersburg, MD, cat. 114-055-101), at 800-fold the tested concentration and stored at -70 degrees C prior to their use. All drugs and investigational agents were tested over a range starting from a high concentration at or near the clinical Cmax and decreasing in half-log increments. If the clinical Cmax for an agent had not been determined, the highest concentration tested was 10 microM (Table 1).
Cell Culture. All cells were maintained in an incubator at 37 degrees C and 5% CO2 with 95% humidity. The PDC lines were cultured according to standard operating procedures established by the NCI PDMR (https://pdmr.cancer.gov). Briefly, all PDCs were thawed and cultured in Matrigel-coated flasks prepared with a working solution of 1X Ham's F-12 nutrient mix, without supplementation (Invitrogen, Waltham, MA, cat. 11765054), 100 U/mL penicillin-streptomycin (Invitrogen, cat. 15140122), and 2.5% Matrigel (Corning Inc., Corning, NY, cat. 354248) for the first three passages. All PDCs were cultured in complete DMEM/F-12 media containing advanced DMEM/F-12 (Invitrogen, cat. 12634028), 4.9% defined fetal bovine serum, heat inactivated (HyClone Laboratories Inc., Logan, UT, cat. SH30070.03HI), 389 ng/mL hydrocortisone (Sigma-Aldrich, cat. H4001), 9.7 ng/mL human EGF recombinant protein (Invitrogen, cat. PHG0313), 23.4 microg/mL adenine (Sigma-Aldrich, cat. A2786), 97.3 U/mL penicillin-streptomycin (Invitrogen, cat. 15140122), 1.9 mM L-glutamine (Invitrogen, cat. 25030081), and 9.7 microM Y-27632 dihydrochloride (Tocris Bioscience, Bristol, United Kingdom, cat. 1254). The PDCs were cultured in complete DMEM/F12 media without 10 microM Y-27632 dihydrochloride for at least two passages prior to the screen. The established cell lines NCI-H1341 and […] were cultured in DMEM/F-12, HEPES (Invitrogen, cat. 11330032), 5% defined fetal bovine serum (HyClone Laboratories Inc., cat. SH30070.03), ITS premix universal culture supplement [insulin (5 microg/mL), transferrin (5 microg/mL), and selenious acid (5 ng/mL)] […]

[1] = second compound 0.1 µM, first compound 0.0316 µM
[2] = second compound 0.1 µM, first compound 0.1 µM
[3] = second compound 0.1 µM, first compound 0.316 µM
[4] = second compound 0.1 µM, first compound 1 µM
[5] = second compound 0.1 µM, first compound 3.16 µM
[6] = second compound 0.1 µM, first compound 10 µM
[7] = second compound 0.316 µM, first compound 0.0316 µM
[8] = second compound 0.316 µM, first compound 0.1 µM
[9] = second compound 0.316 µM, first compound 0.316 µM
[10] = second compound 0.316 µM, first compound 1 µM
[11] = second compound 0.316 µM, first compound 3.16 µM
[12] = second compound 0.316 µM, first compound 10 µM
[13] = second compound 1 µM, first compound 0.0316 µM
[14] = second compound 1 µM, first compound 0.1 µM
[15] = second compound 1 µM, first compound 0.316 µM
[16] = second compound 1 µM, first compound 1 µM
[17] = second compound 1 µM, first compound 3.16 µM
[18] = second compound 1 µM, first compound 10 µM
[19] = second compound 3.16 µM, first compound 0.0316 µM
[20] = second compound 3.16 µM, first compound 0.1 µM
[21] = second compound 3.16 µM, first compound 0.316 µM
[22] = second compound 3.16 µM, first compound 1 µM
[23] = second compound 3.16 µM, first compound 3.16 µM
[24] = second compound 3.16 µM, first compound 10 µM
[25] = second compound 10 µM, first compound 0.0316 µM
[26] = second compound 10 µM, first compound 0.1 µM
[27] = second compound 10 µM, first compound 0.316 µM
[28] = second compound 10 µM, first compound 1 µM
[29] = second compound 10 µM, first compound 3.16 µM
[30] = second compound 10 µM, first compound 10 µM
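Further: luminescence taken as a proxy for viable cell amount.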
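Wherever viability, T/C is given: percent of DMSO vehicle control where 100% means growth equal to vehicle.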

| SMILES | IC50 (second compound 0.1 µM) | IC50 (second compound 0.316 µM) | IC50 (second compound 1 µM) | IC50 (second compound 3.16 µM) | IC50 (second compound 10 µM) | viability, T/C [1] | viability, T/C [2] | viability, T/C [3] | viability, T/C [4] | viability, T/C [5] | viability, T/C [6] | viability, T/C [7] | viability, T/C [8] | viability, T/C [9] | viability, T/C [10] | viability, T/C [11] | viability, T/C [12] | viability, T/C [13] | viability, T/C [14] | viability, T/C [15] | other results |
| --- | --- | --- | --- | --- | --- | --- | --- | --- | --- | --- | --- | --- | --- | --- | --- | --- | --- | --- | --- | --- | --- |
| COc1cc(C2c3cc4c(cc3C(OC3OC5COC(C)OC5C(O)C3O)C3COC(=O)C23)OCO4)cc(OC)c1O (stereo not given) + Cc1cncc(-c2nc(NCCc3c[nH]c4ccccc34)c3ncn(C(C)C)c3n2)c1 | > 10 µM | > 10 µM | > 10 µM | 5.51 µM | < 0.0316 µM | 105% | 96.7% | 102% | 93.8% | 84.6% | 63.4% | 112% | 110% | 96.8% | 85.4% | 77.9% | 71.5% | 89.7% | 126% | 115% | viability, T/C [16]: 93.3%; viability, T/C [17]: 72.2%; viability, T/C [18]: 64.5%; viability, T/C [19]: 60.3%; viability, T/C [20]: 64.1%; viability, T/C [21]: 62.8%; viability, T/C [22]: 54.3%; viability, T/C [23]: 51.6%; viability, T/C [24]: 47.9%; viability, T/C [25]: 1.19%; viability, T/C [26]: 1.35%; viability, T/C [27]: 1.7%; viability, T/C [28]: 1.47%; viability, T/C [29]: 1.3%; viability, T/C [30]: 2.49% |
| CC1(C)CCC(CN2CCN(c3ccc(C(=O)NS(=O)(=O)c4ccc(NCC5CCOCC5)c([N+](=O)[O-])c4)c(Oc4cnc5[nH]ccc5c4)c3)CC2)=C(c2ccc(Cl)cc2)C1 + Cc1cncc(-c2nc(NCCc3c[nH]c4ccccc34)c3ncn(C(C)C)c3n2)c1 | 8.32 µM | 7.1 µM | 7.97 µM | 0.0316 µM | < 0.0316 µM | 112% | 96.1% | 106% | 97% | 87.8% | 42.5% | 120% | 88% | 101% | 92.7% | 88.4% | 34.3% | 116% | 113% | 95% | viability, T/C [16]: 103%; viability, T/C [17]: 97.7%; viability, T/C [18]: 37.8%; viability, T/C [19]: 48%; viability, T/C [20]: 49.5%; viability, T/C [21]: 54.6%; viability, T/C [22]: 43.3%; viability, T/C [23]: 52.1%; viability, T/C [24]: 24.7%; viability, T/C [25]: 1.31%; viability, T/C [26]: 1.08%; viability, T/C [27]: 1.56%; viability, T/C [28]: 1.25%; viability, T/C [29]: 1.72%; viability, T/C [30]: 4.35% |
